Source: US10857123B2, “NLRP3 inhibitors for the treatment of inflammatory skin disorders” (GALDERMA RESEARCH & DEVELOPMENT, priority 2016, dated 2020)

Legend:
Mouse Psoriasiform Model = assay: Mouse psoriasiform model (imiquimod / Aldara-induced skin inflammation); format: in vivo, Balb/c mice; settings: topical, 3% in acetone, once a day 2 h before Aldara, FIG. 4
Description: Example 2: Protocol for Testing an NLRP3 Antagonist (N-((1,2,3,5,6,7-hexahydro-s-indacen-4-yl)carbamoyl)-4-(2-hydroxypropan-2-yl)furan-2-sulfonamide, Compound 3, Also Known as MCC950) on a Mouse Psoriasiform Model
The treatment protocol consists of a daily topical application of Aldara® (3.18 mg of imiquimod) for 7 days to the shaved skin of Balb/c mice. The NLRP3 antagonist was dissolved in 3% acetone and was applied once a day 2 h before the treatment with Aldara®. The clinical score is an overall classification resulting from the sum of the erythema, edema and desquamation scores, on the basis of the overall evaluation by the physician of the Lattice system, known as LS PGA (J Am Acad Dermatol. 2004 October; 51(4):563-9).
Indeed, imiquimod induces inflamed scaly skin lesions resembling the psoriasis plaque. These lesions are associated with increased epidermal proliferation, abnormal differentiation, an epidermal accumulation of neutrophils in […], neoangiogenesis and infiltrates consisting of CD4+ T cells, of CD11c (+) dendritic cells and of plasmacytoid dendritic cells. Imiquimod induces an epidermal expression of IL-23, IL-17A and IL-17F, and also an increase in Th17 spleen cells. […]

[1] = test system: Mouse Atopic Dermatitis Model; assay: Mouse atopic dermatitis model (epicutaneous sensitization with Dermatophagoides pteronyssinus allergen); format: in vivo, Balb/c mice; settings: for Insensible water loss (IWL) decrease / Thickness of the epidermis (epidermal acanthosis) change / Inflammatory score reduction: day 51; for Insensible water loss (IWL) decrease: FIG. 1; for Thickness of the epidermis (epidermal acanthosis) change: FIG. 2; for Inflammatory score reduction: FIG. 3
Description: Example 1: Protocol for Testing an NLRP3 Antagonist (N-((1,2,3,5,6,7-hexahydro-s-indacen-4-yl)carbamoyl)-4-(2-hydroxypropan-2-yl)furan-2-sulfonamide, Compound 3, Also Known as MCC950) on a Mouse Atopic Dermatitis Model
Female Balb/c mice were treated with the allergen Dermatophagoides pteronyssinus (DERP) in 3 cycles of epicutaneous sensitization (per patch) on the abdominal skin with 2 patches applied twice a week, followed by 2 weeks of rest, for 7 weeks. Topical treatments with an NLRP3 antagonist (compound 3, 2% in an acetone carrier) or a corticosteroid (0.1% betamethasone valerate, used as a control) were carried out 3 times over the course of the third and final week of sensitization (on days 44, 47 and 50).
An inflammatory reaction was induced by epicutaneous sensitization with patches impregnated with 100 μg of allergen in a sterile saline solution (Dermatophagoides pteronyssinus or DERP) or with a carrier applied to the abdominal skin 24 hours after shaving and left for three periods of 1 week (with a change of patch in the middle of the week), with a gap of 2 weeks between applications.
For the systemic route, the NLRP3 antagonist was administered intravenously, 200 μl, 2.5 mg/ml once a day, for the final series of epicutaneous sensitization with the allergen (D44 to D50).
For the topical administration, the test antagonist (compound 3) was formulated at 2% in an acetone carrier, applied to the sensitized skin 2 hours before the DERP patches were put in place. The topical treatments with an NLRP3 antagonist or a corticosteroid (used as a control) were carried out 3 times over the course of the third and final week of sensitization (on days 44, 47 and 50). At the time the final patch was removed (day 51), the skin and blood samples were collected.
The IWL is measured using a Tewameter on an animal the day before day 51. The Tewameter® probe measures the gradient of density of the evaporation of water from the skin indirectly by means of two sensors (temperature and relative humidity) inside a hollow cylinder. A microprocessor analyzes the values and expresses the evaporation rate in g/h/m^2.
The thickness of the epidermis is measured by histological morphometric analyses on sections 6 μm thick, stained with hematoxylin eosin (HE), originating from skin samples fixed beforehand in […].
The inflammatory score is defined visually on the basis of predefined dryness, skin rash, baldness, excoriation and lichenification scales. The mean of the five scores given to one individual mouse on a given day indicates the clinical score given on the specific day.

[2] = systemic route (intravenous, 200 μl, 2.5 mg/ml once a day, D44 to D50)
[3] = topical route (2% in acetone carrier, days 44, 47 and 50)

CC(C)(O)c1coc(S(=O)(=O)NC(=O)Nc2c3c(cc4c2CCC4)CCC3)c1 [Compound 3, N-((1,2,3,5,6,7-hexahydro-s-indacen-4-yl)carbamoyl)-4-(2-hydroxypropan-2-yl)furan-2-sulfonamide]
Reduction of imiquimod-induced skin inflammation on the basis of the clinical score (Mouse Psoriasiform Model; day 4): −36%
Reduction of imiquimod-induced skin inflammation on the basis of the clinical score (Mouse Psoriasiform Model; day 5): −27%
Insensible water loss (IWL) decrease [1, 2]: −60%
Thickness of the epidermis (epidermal acanthosis) change [1, 2]: −38%
Inflammatory score reduction [1, 2]: −62%
Insensible water loss (IWL) decrease [1, 3]: −42%
Thickness of the epidermis (epidermal acanthosis) change [1, 3]: −24%
Inflammatory score reduction [1, 3]: −39%
Efficacy compared with corticosteroid treatment ([1]; versus 0.1% betamethasone valerate, the corticosteroid control): quite close to the treatment with corticosteroids
